Test results as given in US9309221B2, “1-substituted indazole derivative” (Dainippon Sumitomo Pharma Co., Ltd., priority 2012, dated 2016).

How the values were obtained:
human α7 nAChR = target: T1, human α7 nAChR (Homo sapiens, UniProt P36544); assay: Evaluation of PAM activity with human α7 nACh receptor stably expressing cells (aequorin luminescence, FDSS7000); assay type: cell-based; details: test compound 10 μmol/L; ACh at EC20; ratio of RLU (Max-Min) of test-compound wells to control wells; human α7 nAChR expressing GH4C1 cells
T1 construct: expressed in transfected cells; host or cells: GH4C1 cells (rat pituitary, ATCC CCL-82.2)
T1 sequence (P36544 23-502): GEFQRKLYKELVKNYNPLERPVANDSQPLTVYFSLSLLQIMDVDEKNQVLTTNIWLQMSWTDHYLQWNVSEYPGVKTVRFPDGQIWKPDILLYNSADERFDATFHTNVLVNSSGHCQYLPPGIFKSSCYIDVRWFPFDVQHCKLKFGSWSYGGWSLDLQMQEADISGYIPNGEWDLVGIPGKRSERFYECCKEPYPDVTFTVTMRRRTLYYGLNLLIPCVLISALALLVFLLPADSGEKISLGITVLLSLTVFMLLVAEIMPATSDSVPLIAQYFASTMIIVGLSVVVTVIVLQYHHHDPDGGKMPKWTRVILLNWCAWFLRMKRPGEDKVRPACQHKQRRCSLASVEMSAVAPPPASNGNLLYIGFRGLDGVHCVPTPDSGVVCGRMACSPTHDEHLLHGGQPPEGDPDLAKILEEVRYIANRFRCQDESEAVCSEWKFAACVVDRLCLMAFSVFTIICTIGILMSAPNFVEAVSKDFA
Excerpt: Evaluation of PAM Activity with Human α7 nACh Receptor Stably Expressing Cells
(1) Human α7 nAChR stably expressing cells
Human α7 nAChR stably expressing cells were generated and cultured. In detail, GH4C1 cells derived from rat pituitary (cat#CCL-82.2, ATCC, USA) were used as a host cell. PcDNA3.1Zeo vector containing a nucleotide sequence encoding a protein GenBank BAC81731 and pcDNA3.1 vector containing human α7 nAChR gene (cat#V790-20, invitrogen, Carlsbad, Calif., USA) were transfected to the cells to give aequorins and human α7 nAChR stably expressing cells respectively. The aequorins and human α7 nAChR stably expressing cells were screened with Zeocin (cat#R25001, invitrogen, Carlsbad, Calif., USA) and Geneticin (cat#10131-027, invitrogen, Carlsbad, Calif., USA) respectively.
The cells were cultured in F-10 Nutrient Mixture (Ham) medium (cat#11550-043, invitrogen, Carlsbad, Calif., USA) containing 2.5% fetal bovine serum (cat#2917354, ICN Biomedicals, Inc, USA), 15% inactivated horse serum (cat#26050-088, invitrogen, Carlsbad, Calif., USA), 1 μg/mL Geneticin, and 5 μg/mL Puromycin (cat#14861-84, invitrogen, Carlsbad, Calif., USA), in a Collagen Type 1-coated dish (cat#4030-010, iwaki, Tokyo, Japan). During the culture, the medium was replaced with fresh medium in every 2 to 3 days, and the cells were treated with TrypLE Express (cat#45604-021, invitrogen, Carlsbad, Calif., USA) to collect them in every 7 days. Thus, the cells were subcultured.
7 Days after subculturing, the cells were treated with TrypLE Express to collect them when they were about 80% confluent. The cells were suspended in a reaction medium containing Hanks (cat#14065-056, invitrogen, Carlsbad, Calif., USA)/20 mmol/L Hepes (cat#15630-080, invitrogen, Carlsbad, Calif., USA), Buffer (pH 7.4), F-10 Nutrient Mixture (Ham), and 0.1 mg/mL Geneticin, and the suspension was seeded in a 384-well plate (cat#781090, Greiner, Germany) at 20000 cells/25 μL per well.
On the next day after seeding, Viviren (cat#E649X, Promega, Madison, Wis., USA) was added to the medium so that the final concentration could be 4 μmol/L (15 μL/well). The plates were centrifuged and then placed in the dark for 4 hours at room temperature.
(2) Preparation of the Test Samples
Each of the test compounds was dissolved in DMSO to prepare each test sample at a concentration of 1000-fold the final concentration. To the solution was added Hanks/20 mM HEPES/0.2% BSA (cat#A3803, Sigma, St. Louis, Mo., USA), and the concentration was adjusted to 6-fold the final concentration.
(3) Evaluation of PAM Activity
FDSS7000 (Hamamatsu Photonics) was used to detect the luminescence signal evoked by α7 nAChR stimulation. The cells and a luminescent substrate were put on a plate, and the test sample was added thereto. […] After the addition of ACh, the luminescence signal (the central wavelength: 465 nm) was measured for 138 seconds to calculate RLU (Max-Min). The ratio of the RLU (Max-Min) of the test-compound-containing wells to that of the control wells was defined as PAM activity.

Slc: ddY mice = assay: Novel object recognition test with mice (mORT); assay type: in vivo; details: 0.3 mg/kg, 1.0 mg/kg or 3 mg/kg
Experimental: Evaluation of Cognitive Function with Mice in Novel Object Recognition Test (Hereinafter, Referred to as “mORT”)
Slc: ddY mice (25 g to 30 g, male, Japan SLC) can be used in the novel object recognition test wherein the interval between the 1st trial (training) and the 2nd trial (test) correlates with the memory loss for the objects used in the 1st trial, and a significant memory-loss is observed when the 2nd trial is performed 24 hours after the 1st trial. According to the test mechanism, the present compounds were administered prior to the 1st trial, and the enhancement effect on memory in the 2nd trial was evaluated.

## CO[C@H]1CC[C@H](NC(=O)N2CCC(n3ncc4cc(C)ccc43)CC2)CC1 [Example 1, N-(trans-4-methoxycyclohexyl)-4-(5-methyl-1H-indazol-1-yl)piperidine-1-carboxamide]
Human α7 nAChR
  α7PAM (%) @ 10 μmol/L: 1209%
Slc: ddY mice
  efficacy at higher doses: the efficacy did not decrease

## CO[C@H]1CC[C@H](NC(=O)N2CCC(n3ncc4cc(C5CC5)ccc43)CC2)CC1 [Example 74, 4-(5-cyclopropyl-1H-indazol-1-yl)-N-(trans-4-methoxycyclohexyl)piperidine-1-carboxamide]
Human α7 nAChR
  α7PAM (%) @ 10 μmol/L: 1226%
Slc: ddY mice
  efficacy at higher doses: the efficacy did not decrease

## CCc1ccc2c(cnn2C2CCN(C(=O)N[C@H]3CC[C@H](OC)CC3)CC2)c1OC [Example 255, 4-(5-ethyl-4-methoxy-1H-indazol-1-yl)-N-(trans-4-methoxycyclohexyl)piperidine-1-carboxamide]
Human α7 nAChR
  α7PAM (%) @ 10 μmol/L: 1096%

## CCc1ccc2c(cnn2C2CCN(C(=O)NC3CCOCC3)CC2)c1OC [Example 275, 4-(5-ethyl-4-methoxy-1H-indazol-1-yl)-N-(tetrahydro-2H-pyran-4-yl)piperidine-1-carboxamide]
Human α7 nAChR
  α7PAM (%) @ 10 μmol/L: 1093%

## CO[C@H]1CC[C@H](NC(=O)N2CCC(n3ncc4cc(OC(F)F)ccc43)CC2)CC1 [Example 291, 4-[5-(difluoromethoxy)-1H-indazol-1-yl]-N-(trans-4-methoxycyclohexyl)piperidine-1-carboxamide]
Human α7 nAChR
  α7PAM (%) @ 10 μmol/L: 1433%

## O=C(NC1CCOCC1)N1CCC(n2ncc3cc(C(F)(F)F)ccc32)CC1 [Example 297]
Human α7 nAChR
  α7PAM (%) @ 10 μmol/L: 340%

## O=C(NC1CCOCC1)N1CCC(n2ncc3c(OC(F)(F)F)cccc32)CC1 [Example 304]
Human α7 nAChR
  α7PAM (%) @ 10 μmol/L: 380%

## COc1c(C(F)(F)F)ccc2c1cnn2C1CCN(C(=O)NC2CCC(OC)CC2)CC1 (stereo not shown) [Example 317]
Human α7 nAChR
  α7PAM (%) @ 10 μmol/L: 360%
